Measured values published in patent US10265310B2, “6-membered cyclic amines or lactames substituted with urea and phenyl” (GRÜNENTHAL GMBH, priority 2016, dated 2019).

Columns and labels:
[1] = target: FPR1 (Homo sapiens (Human), UniProt P21462); test: Agonistic activity (calcium FLIPR) in hFPR1-Gα15-CHO cells; assay type: cell-based; details: FLIPR Calcium 5 dye fluorescence, agonistic response
Experimental: (§1) Cells (hFPR1-Gα15-CHO or hFPR2-Aq-CHO) are suspended in 10 mL of respective complete medium (F12(1×) HAM media; 10% HI-FBS; 0.1 mg/ml Hygromycin B and 0.2 mg/ml Zeocin [for hFPR1 only]; 0.4 mg/mL Geneticin and 0.25 mg/ml Zeocin [for hFPR2-Aq only]) and viability is checked using Trypan Blue exclusion. After washing, the cells are plated at 10,000 cells per well in 40 μL complete medium in a 384-well sterile clear bottom black plate and incubated in a 5% CO2 incubator at 37° C. for 18 hours. Plating media is removed from each well by decanting and gentle tapping before 30 μL of 0.5× Calcium 5 dye solution (0.5×FLIPR Calcium 5 dye (Molecular devices, R8186)); HBSS; 20 mM HEPES; 2.5 mM Probenecid; 0.025% Pluronic F-127; pH adjusted to 7.4) is added to each well and the plate is then incubated at 37° C. for 30 minutes. For the assay the plate is equilibrated at room temperature for 10 minutes before placing it in the FLIPR. Compounds are dissolved in DMSO and serially diluted over an 11 point half log (3.16 fold) dilution (2 mM to 20 nM). Compounds are then diluted 1:50 in assay buffer (HBSS; 20 mM HEPES; 2.5 mM Probenecid; 0.05% gelatin; 0.1% BSA; pH adjusted to 7.4) just before performing the assay. Compounds are finally added to the respective wells of the cell plate (final assay concentration 10 μM to 100 pM) using the FLIPR (e.g. FLIPR-Tetra, Molecular Devices) and fluorescence readings are captured for 5 minutes. The increase in fluorescence from the basal reading in the presence of the compounds is compared with that of the control wells (wells having no compound) to calculate the activity of the compounds. The EC50 values of the compounds can be determined using e.g. Graph pad Prism software.
(§2) Assay Method for Measuring Agonistic Activity of Compounds in hFPR1-Gα15-CHO and hFPR2-Aq-CHO Cell
(§3) Cryo-vial containing 6×10^6 cells (hFPR1-Gα15-CHO or hFPR2-Aq-CHO) was thawed in a 37° C. water bath. Cells were suspended in 10 ml of respective complete growth media (F12(1×) HAM media (Gibco; Cat#11765); 10% HI-FBS (Gibco; Cat#10082); 0.1 mg/ml Hygromycin B (Invitrogen; Cat#10687-010) [for hFPR1 only]; 0.2 mg/ml Zeocin (Invitrogen; Cat#R25001) [for hFPR1 only]; 0.4 mg/ml Geneticin (Gibco; Cat#10131) [for hFPR2-Aq only]; 0.25 mg/ml Zeocin (Invitrogen; Cat#R25001) [for hFPR2-Aq only]) in a 15 ml centrifuge tube. The cell viability was checked with the help of Trypan Blue dye. Upon washing the cells, those were plated in a 384-well sterile clear bottom black plate (Greiner Bioone Cat#781091) so that, each well contained 10,000 cells in 40 μl complete growth media. The plate was incubated in a 5% CO2 incubator at 37° C. for 18 hours.
(§4) Before assay on the next day, the cell plating media was removed from each well of the plate by decanting and gentle tapping. 30 μl, 0.11 of 0.5× Calcium 5 dye solution (0.5×FLIPR Calcium 5 dye (Molecular devices Cat# R8186); HBSS (Invitrogen; Cat#14025); 20 mM HEPES (Sigma; Cat#H0887); 2.5 mM Probenecid (Sigma; Cat#P8761); 0.025% Pluronic F-127 (Sigma; Cat#P2443); pH adjusted to 7.4) was added to each well. The plate was then incubated at 37° C. for 30 minutes. Following which the plate was equilibrated at room temperature for 10 minutes before placing it in a 384 well FLIPR for assay. Compounds were dissolved in DMSO and serially diluted following 11 point half log (3.16 fold) dilution with a starting concentration of 2 mM (Final assay concentration 10 μM). Aliquots of above mentioned each dilution was mixed with assay buffer (HBSS (Invitrogen; Cat#14025); 20 mM HEPES (Sigma; Cat#H0887); 2.5 mM Probenecid (Sigma; Cat#P8761); 0.05% gelatin (Sigma; Cat#G1890); 0.1% BSA (Sigma; Cat#A3059); pH adjusted to 7.4) just before performing the assay. Compounds were added to the respective wells of the assay ready cell plate with the help of the FLIPR (FLIPR Tetra) and fluorescence readings were captured for 5 minutes to measure any agonistic response of the compounds. […]

[2] = target: FPR2 (Homo sapiens (Human), UniProt P25090); test: Agonistic activity (calcium FLIPR) in hFPR2-Aq-CHO cells; assay type: cell-based; details: FLIPR Calcium 5 dye fluorescence, agonistic response
Experimental: as §1, §2, §3, §4

Chain of FPR2 (P25090 whole entry): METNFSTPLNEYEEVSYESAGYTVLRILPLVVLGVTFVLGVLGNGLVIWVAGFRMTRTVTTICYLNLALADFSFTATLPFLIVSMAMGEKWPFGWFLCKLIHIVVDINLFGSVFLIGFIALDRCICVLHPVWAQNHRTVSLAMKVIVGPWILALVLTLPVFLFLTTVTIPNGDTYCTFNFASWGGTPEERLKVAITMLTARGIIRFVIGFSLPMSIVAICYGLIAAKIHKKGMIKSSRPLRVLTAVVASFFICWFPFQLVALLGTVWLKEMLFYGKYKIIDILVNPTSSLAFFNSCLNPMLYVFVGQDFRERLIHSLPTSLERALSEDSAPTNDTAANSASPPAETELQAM
Chain of FPR1 (P21462 whole entry): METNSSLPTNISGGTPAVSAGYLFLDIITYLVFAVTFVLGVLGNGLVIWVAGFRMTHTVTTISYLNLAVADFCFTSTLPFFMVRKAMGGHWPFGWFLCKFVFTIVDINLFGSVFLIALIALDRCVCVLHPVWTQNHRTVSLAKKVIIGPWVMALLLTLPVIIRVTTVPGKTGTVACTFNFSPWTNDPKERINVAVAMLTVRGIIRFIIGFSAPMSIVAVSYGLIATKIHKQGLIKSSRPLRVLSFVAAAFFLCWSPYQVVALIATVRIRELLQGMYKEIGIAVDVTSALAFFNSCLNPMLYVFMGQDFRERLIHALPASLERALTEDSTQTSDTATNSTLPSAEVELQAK

Compound	EC50 [1]	EC50 [2]
COc1ccc([C@@H]2CC(=O)NC[C@H]2NC(=O)Nc2ccc(Cl)cc2)cc1 (racemic) [Example 1, rac-trans-1-(4-chlorophenyl)-3-(4-(4-methoxyphenyl)-6-oxopiperidin-3-yl)urea]	1 to 1000 nM	< 1 nM
COc1ccc([C@@H]2CCN(C(C)=O)C[C@H]2NC(=O)Nc2ccc(Cl)cc2)cc1 (racemic) [Example 2, rac-trans-1-(1-acetyl-4-(4-methoxyphenyl)piperidin-3-yl)-3-(4-chlorophenyl)urea]	< 1 nM	< 1 nM
COc1ccc([C@@H]2CC(=O)NC[C@H]2NC(=O)Nc2ccc(Br)cc2)cc1 (racemic) [Example 3, rac-trans-1-(4-bromophenyl)-3-(4-(4-methoxyphenyl)-6-oxopiperidin-3-yl)urea]	1 to 1000 nM	< 1 nM
COc1ccc([C@@H]2CCNC[C@H]2NC(=O)Nc2ccc(Cl)cc2)cc1 (racemic) [Example 4, rac-trans-1-(4-chlorophenyl)-3-(4-(4-methoxyphenyl)piperidin-3-yl)urea]	1 to 1000 nM	< 1 nM
COc1cc(F)c([C@@H]2CCN(C(C)=O)C[C@H]2NC(=O)Nc2ccc(Cl)cc2)c(F)c1 (racemic) [Example 5, rac-trans-1-(1-acetyl-4-(2,6-difluoro-4-methoxyphenyl)piperidin-3-yl)-3-(4-chlorophenyl)urea]	1 to 1000 nM	< 1 nM
COc1ccc([C@@H]2CCNC[C@H]2NC(=O)Nc2ccc(Br)cc2)cc1 (racemic) [Example 6, rac-trans-1-(4-bromophenyl)-3-(4-(4-methoxyphenyl)piperidin-3-yl)urea]	1 to 1000 nM	< 1 nM
COc1cc(F)c([C@@H]2CCNC[C@H]2NC(=O)Nc2ccc(Br)cc2)c(F)c1 (racemic) [Example 8, rac-trans-1-(4-bromophenyl)-3-(4-(2,6-difluoro-4-methoxyphenyl)piperidin-3-yl)urea]	1 to 1000 nM	< 1 nM
COc1cc(F)c([C@@H]2CCNC[C@H]2NC(=O)Nc2ccc(Cl)cc2)c(F)c1 (racemic) [Example 9, rac-trans-1-(4-chlorophenyl)-3-(4-(2,6-difluoro-4-methoxyphenyl)piperidin-3-yl)urea]	1 to 1000 nM	< 1 nM
COc1ccc([C@@H]2CCN(C(=O)C3CC3)C[C@H]2NC(=O)Nc2ccc(Cl)cc2)cc1 (racemic) [Example 12, rac-trans-1-(4-chlorophenyl)-3-(1-(cyclopropanecarbonyl)-4-(4-methoxyphenyl)piperidin-3-yl)urea]	< 1 nM	< 1 nM
COc1ccc([C@@H]2CCN(C(=O)CO)C[C@H]2NC(=O)Nc2ccc(Cl)cc2)cc1 (racemic) [Example 13, rac-trans-1-(4-chlorophenyl)-3-(1-(2-hydroxyacetyl)-4-(4-methoxyphenyl)piperidin-3-yl)urea]	< 1 nM	< 1 nM
COc1ccc([C@@H]2CCN(C(=O)C(C)(F)F)C[C@H]2NC(=O)Nc2ccc(Cl)cc2)cc1 (racemic) [Example 14, rac-trans-1-(4-chlorophenyl)-3-(1-(2,2-difluoropropanoyl)-4-(4-methoxyphenyl)piperidin-3-yl)urea]	< 1 nM	< 1 nM
COCCC(=O)N1CC[C@@H](c2ccc(OC)cc2)[C@H](NC(=O)Nc2ccc(Cl)cc2)C1 (racemic) [Example 15, rac-trans-1-(4-chlorophenyl)-3-(4-(4-methoxyphenyl)-1-(3-methoxypropanoyl)piperidin-3-yl)urea]	< 1 nM	< 1 nM
COc1ccc([C@@H]2CCN(C(=O)C3CCOCC3)C[C@H]2NC(=O)Nc2ccc(Cl)cc2)cc1 (racemic) [Example 16, rac-trans-1-(4-chlorophenyl)-3-(4-(4-methoxyphenyl)-1-(tetrahydro-2H-pyran-4-carbonyl)piperidin-3-yl)urea]	< 1 nM	< 1 nM
COc1ccc([C@@H]2CCN(C(=O)C(C)C)C[C@H]2NC(=O)Nc2ccc(Cl)cc2)cc1 (racemic) [Example 17, rac-trans-1-(4-chlorophenyl)-3-(1-isobutyryl-4-(4-methoxyphenyl)piperidin-3-yl)urea]	< 1 nM	< 1 nM
COc1ccc([C@@H]2CCN(C(=O)CC(C)C)C[C@H]2NC(=O)Nc2ccc(Cl)cc2)cc1 (racemic) [Example 18, rac-trans-1-(4-chlorophenyl)-3-[4-(4-methoxyphenyl)-1-(3-methyl-butanoyl)-piperidin-3-yl]-urea]	< 1 nM	< 1 nM
COc1ccc([C@@H]2CCN(C(C)=O)C[C@H]2NC(=O)Nc2ccc(Cl)nc2)cc1 (racemic) [Example 19, rac-trans-1-(1-acetyl-4-(4-methoxyphenyl)piperidin-3-yl)-3-(6-chloropyridin-3-yl)urea]	1 to 1000 nM	1 to 1000 nM
COc1ccc([C@@H]2CC(=O)N(CC(N)=O)C[C@H]2NC(=O)Nc2ccc(Cl)cc2)cc1 (racemic) [Example 20, rac-trans-2-(5-(3-(4-chlorophenyl)ureido)-4-(4-methoxyphenyl)-2-oxopiperidin-1-yl)acetamide]	1 to 1000 nM	< 1 nM
COC(=O)CN1C[C@@H](NC(=O)Nc2ccc(Cl)cc2)[C@H](c2ccc(OC)cc2)CC1=O (racemic) [Example 21, rac-trans-methyl 2-(5-(3-(4-chlorophenyl)ureido)-4-(4-methoxyphenyl)-2-oxopiperidin-1-yl)acetate]	< 1 nM	< 1 nM
COc1cc(F)c([C@@H]2CC(=O)NC[C@H]2NC(=O)Nc2ccc(Cl)cc2)c(F)c1 (racemic) [Example 23, rac-trans-1-(4-chlorophenyl)-3-(4-(2,6-difluoro-4-methoxyphenyl)-6-oxopiperidin-3-yl)urea]	1 to 1000 nM	< 1 nM
COc1ccc([C@@H]2CC(=O)N(CC3CC3)C[C@H]2NC(=O)Nc2ccc(Cl)cc2)cc1 (racemic) [Example 24, rac-trans-1-(4-chlorophenyl)-3-(1-(cyclopropylmethyl)-4-(4-methoxyphenyl)-6-oxopiperidin-3-yl)urea]	1 to 1000 nM	< 1 nM
COc1ccc([C@@H]2CCN(C(C)=O)C[C@H]2NC(=O)Nc2cncnc2)cc1 (racemic) [Example 25, rac-trans-1-(1-acetyl-4-(4-methoxyphenyl)piperidin-3-yl)-3-(pyrimidin-5-yl)urea]	1 to 1000 nM	1 to 1000 nM
COc1ccc([C@@H]2CCN(C(C)=O)C[C@H]2NC(=O)Nc2ccc(C)nc2)cc1 (racemic) [Example 26, rac-trans-1-(1-acetyl-4-(4-methoxyphenyl)piperidin-3-yl)-3-(6-methylpyridin-3-yl)urea]	1 to 1000 nM	1 to 1000 nM
CSc1ccc([C@@H]2CC(=O)NC[C@H]2NC(=O)Nc2ccc(Cl)cc2)cc1 (racemic) [Example 72, rac-trans-1-(4-chlorophenyl)-3-(4-(4-(methylthio)phenyl)-6-oxopiperidin-3-yl)urea]	1 to 1000 nM	
